Activity calls are given as the source filed them. The rule behind the calls is not given here.
Legend:
[1] = biological target: Serine/threonine-protein kinase MARK1 (Homo sapiens, UniProt Q9P0L2); test: Inhibition of human MARK1 using KKKVSRSGLYRSPSMPENLNRPR as substrate in presence of [gamma33P]-ATP by HotSpot assay
[2] = biological target: Non-receptor tyrosine-protein kinase TYK2 (Homo sapiens) (UniProt P29597); test: Inhibition of human TYK2 at 1 uM using KKSRGDYMTMQIG as substrate in presence of [gamma33P]-ATP by HotSpot assay relative to control
Sequence of Non-receptor tyrosine-protein kinase TYK2 (Homo sapiens) (P29597 whole entry): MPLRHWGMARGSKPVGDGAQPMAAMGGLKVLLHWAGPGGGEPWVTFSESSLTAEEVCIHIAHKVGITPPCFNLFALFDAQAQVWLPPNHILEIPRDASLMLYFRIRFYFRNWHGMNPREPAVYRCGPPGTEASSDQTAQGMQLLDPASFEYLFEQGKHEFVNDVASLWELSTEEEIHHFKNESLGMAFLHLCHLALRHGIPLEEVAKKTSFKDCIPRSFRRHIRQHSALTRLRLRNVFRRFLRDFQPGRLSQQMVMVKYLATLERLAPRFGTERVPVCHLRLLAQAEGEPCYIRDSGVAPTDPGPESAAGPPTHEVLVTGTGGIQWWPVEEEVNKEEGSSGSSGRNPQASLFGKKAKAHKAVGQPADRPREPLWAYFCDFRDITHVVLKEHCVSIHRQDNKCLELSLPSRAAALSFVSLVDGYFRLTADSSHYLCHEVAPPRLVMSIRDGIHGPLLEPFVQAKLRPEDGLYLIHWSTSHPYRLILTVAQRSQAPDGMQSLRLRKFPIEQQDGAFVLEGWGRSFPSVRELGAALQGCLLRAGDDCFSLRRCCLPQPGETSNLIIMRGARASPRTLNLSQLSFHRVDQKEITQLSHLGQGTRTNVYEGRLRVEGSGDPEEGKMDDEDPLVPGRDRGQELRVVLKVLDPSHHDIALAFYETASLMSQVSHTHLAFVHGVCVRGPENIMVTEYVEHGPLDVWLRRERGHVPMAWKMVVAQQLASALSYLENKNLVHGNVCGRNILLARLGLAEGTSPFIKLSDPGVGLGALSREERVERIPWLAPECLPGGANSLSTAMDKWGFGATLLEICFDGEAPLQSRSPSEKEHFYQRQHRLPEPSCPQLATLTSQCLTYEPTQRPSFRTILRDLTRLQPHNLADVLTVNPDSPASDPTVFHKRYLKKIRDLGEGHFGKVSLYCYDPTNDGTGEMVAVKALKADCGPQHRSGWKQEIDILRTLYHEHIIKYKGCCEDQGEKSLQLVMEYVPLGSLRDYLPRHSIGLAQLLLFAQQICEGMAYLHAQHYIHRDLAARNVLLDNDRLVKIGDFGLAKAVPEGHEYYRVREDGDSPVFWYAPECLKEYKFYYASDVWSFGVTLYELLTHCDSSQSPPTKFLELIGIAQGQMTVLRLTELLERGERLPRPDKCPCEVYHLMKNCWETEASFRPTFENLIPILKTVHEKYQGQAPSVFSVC

[3] = biological target: Serine/threonine-protein kinase mTOR (Homo sapiens) (UniProt P42345); test: Inhibition of human MTOR at 1 uM using 4EBP1 as substrate in presence of [gamma33P]-ATP by HotSpot assay relative to control
[4] = biological target: Ephrin type-A receptor 5 (Homo sapiens) (UniProt P54756); test: Inhibition of human EPHA5 at 1 uM using poly (Glu, Tyr)4:1 as substrate in presence of [gamma33P]-ATP by HotSpot assay relative to control
[5] = biological target: Serine/threonine-protein kinase Chk2 (Homo sapiens, UniProt O96017, I157T); test: Inhibition of human CHEK2 I157T mutant using KKKVSRSGLYRSPSMPENLNRPR as substrate in presence of [gamma33P]-ATP by HotSpot assay
[6] = biological target: Mitogen-activated protein kinase 11 (Homo sapiens) (UniProt Q15759); test: Inhibition of human MAPK11 at 1 uM using MBP as substrate in presence of [gamma33P]-ATP by HotSpot assay relative to control
[7] = biological target: Tyrosine-protein kinase ITK/TSK (Homo sapiens) (UniProt Q08881); test: Inhibition of human ITK at 1 uM using MBP as substrate in presence of [gamma33P]-ATP by HotSpot assay relative to control
[8] = biological target: Hepatocyte growth factor receptor (Homo sapiens, UniProt P08581); test: Inhibition of human MET using poly (Glu, Tyr)4:1 as substrate in presence of [gamma33P]-ATP by HotSpot assay
[9] = biological target: Serine/threonine-protein kinase B-raf (Homo sapiens) (UniProt P15056); test: Inhibition of human BRAF at 1 uM using MEK1 as substrate in presence of [gamma33P]-ATP by HotSpot assay relative to control
[10] = biological target: Casein kinase I isoform delta (Homo sapiens) (UniProt P48730); test: Inhibition of human CK1delta at 1 uM using KRRRAL[pS]VASLPGL as substrate in presence of [gamma33P]-ATP by HotSpot assay relative to control
Sequence of Casein kinase I isoform delta (Homo sapiens) (P48730 whole entry, looked up, canonical isoform): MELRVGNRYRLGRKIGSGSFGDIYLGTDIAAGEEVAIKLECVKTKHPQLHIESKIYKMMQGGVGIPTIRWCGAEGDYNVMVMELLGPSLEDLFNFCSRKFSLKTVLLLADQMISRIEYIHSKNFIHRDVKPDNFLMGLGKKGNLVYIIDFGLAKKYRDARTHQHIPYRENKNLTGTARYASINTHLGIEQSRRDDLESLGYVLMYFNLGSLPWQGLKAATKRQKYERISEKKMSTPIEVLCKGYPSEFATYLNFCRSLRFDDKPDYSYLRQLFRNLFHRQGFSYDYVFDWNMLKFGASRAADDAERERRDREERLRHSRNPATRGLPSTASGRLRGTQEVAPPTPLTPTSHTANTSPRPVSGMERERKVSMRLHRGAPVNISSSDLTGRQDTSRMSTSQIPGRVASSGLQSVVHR

[11] = tested on: EML4-ALK (Homo sapiens), Q9UM73+Q9HC35 [D1203N]; conditions: BaF3, time 3-5 weeks
[12] = biological target: Serine/threonine-protein kinase BRSK1 (Homo sapiens, UniProt Q8TDC3); test: Inhibition of human BRSK1 using KKKVSRSGLYRSPSMPENLNRPR as substrate in presence of [gamma33P]-ATP by HotSpot assay
[13] = biological target: Mitogen-activated protein kinase 14 (Homo sapiens) (UniProt Q16539); test: Inhibition of human P38alpha T106M mutant at 1 uM using poly (Glu, Tyr)4:1 as substrate in presence of [gamma33P]-ATP by HotSpot assay relative to control
[14] = tested on: Platelet-derived growth factor receptor alpha (Homo sapiens), P16234 [V561D]; test: Inhibition of human PDGFRalpha V561D mutant at 1 uM using poly (Glu, Tyr)4:1 as substrate in presence of [gamma33P]-ATP by HotSpot assay relative to control
BaF3 = test: Antitumor activity against mouse BaF3 cells expressing EML4-ALK L1196M mutant implanted in mouse assessed as tumor regression at 50 mg/kg, po administered once daily and measured after 8 days relative to control; assay type: functional; conditions: time 8 day
[15] = biological target: Death-associated protein kinase 1 (Homo sapiens) (UniProt P53355); test: Inhibition of human DAPK1 at 1 uM using KKLNRTLSFAEPG as substrate in presence of [gamma33P]-ATP by HotSpot assay relative to control
Sequence of Death-associated protein kinase 1 (Homo sapiens) (P53355 whole entry, looked up): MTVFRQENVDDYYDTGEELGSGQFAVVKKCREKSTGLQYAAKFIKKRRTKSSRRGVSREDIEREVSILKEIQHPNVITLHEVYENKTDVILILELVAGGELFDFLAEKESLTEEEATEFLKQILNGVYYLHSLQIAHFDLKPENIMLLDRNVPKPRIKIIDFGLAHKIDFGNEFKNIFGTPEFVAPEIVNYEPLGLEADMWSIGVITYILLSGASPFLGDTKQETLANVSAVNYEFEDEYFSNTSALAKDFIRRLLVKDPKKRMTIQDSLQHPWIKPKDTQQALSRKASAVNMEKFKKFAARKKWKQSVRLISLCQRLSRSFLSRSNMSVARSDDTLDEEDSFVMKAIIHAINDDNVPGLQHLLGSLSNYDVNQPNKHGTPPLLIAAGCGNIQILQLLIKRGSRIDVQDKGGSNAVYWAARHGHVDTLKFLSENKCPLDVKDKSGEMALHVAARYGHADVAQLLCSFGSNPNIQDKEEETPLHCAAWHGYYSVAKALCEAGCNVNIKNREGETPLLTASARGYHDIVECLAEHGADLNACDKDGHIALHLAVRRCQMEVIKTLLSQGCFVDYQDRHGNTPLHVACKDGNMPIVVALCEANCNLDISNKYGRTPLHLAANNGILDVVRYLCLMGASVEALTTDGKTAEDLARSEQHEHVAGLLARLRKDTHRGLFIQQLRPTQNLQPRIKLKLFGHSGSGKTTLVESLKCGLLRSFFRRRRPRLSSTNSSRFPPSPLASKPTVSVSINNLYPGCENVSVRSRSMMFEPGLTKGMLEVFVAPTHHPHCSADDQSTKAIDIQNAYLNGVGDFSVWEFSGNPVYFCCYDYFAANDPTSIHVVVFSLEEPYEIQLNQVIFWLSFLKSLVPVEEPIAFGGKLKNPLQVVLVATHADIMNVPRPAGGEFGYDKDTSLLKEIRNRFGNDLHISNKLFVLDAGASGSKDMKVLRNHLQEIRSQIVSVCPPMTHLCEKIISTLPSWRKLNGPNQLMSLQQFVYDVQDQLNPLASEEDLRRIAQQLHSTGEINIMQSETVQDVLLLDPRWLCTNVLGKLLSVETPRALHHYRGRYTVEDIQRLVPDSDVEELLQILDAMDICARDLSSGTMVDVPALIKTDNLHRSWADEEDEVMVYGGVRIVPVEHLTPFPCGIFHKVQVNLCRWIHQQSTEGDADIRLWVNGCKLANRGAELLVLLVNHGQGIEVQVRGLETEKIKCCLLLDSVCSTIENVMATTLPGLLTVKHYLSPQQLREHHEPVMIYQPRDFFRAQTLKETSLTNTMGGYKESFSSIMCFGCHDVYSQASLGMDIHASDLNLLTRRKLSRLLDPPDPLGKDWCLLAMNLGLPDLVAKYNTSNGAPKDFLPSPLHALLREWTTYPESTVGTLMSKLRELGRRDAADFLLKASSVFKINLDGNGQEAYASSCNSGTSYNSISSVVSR

in vitro = conditions: mouse, BaF3 cells
[16] = biological target: Cyclin-dependent kinase 4/cyclin D1 (Homo sapiens) (UniProt P11802+P24385); test: Inhibition of human CDK4/CyclinD1 at 1 uM using RB protein as substrate in presence of [gamma33P]-ATP by HotSpot assay relative to control; assay type: protein-complex assay
[17] = biological target: Ribosomal protein S6 kinase alpha-3 (Homo sapiens, UniProt P51812); test: Inhibition of human RPS6kA3 using KKLNRTLSVA as substrate in presence of [gamma33P]-ATP by HotSpot assay
[18] = biological target: Serine/threonine-protein kinase Nek6 (Homo sapiens) (UniProt Q9HC98); test: Inhibition of human NEK6 at 1 uM using casein as substrate in presence of [gamma33P]-ATP by HotSpot assay relative to control
Sequence of Serine/threonine-protein kinase Nek6 (Homo sapiens) (Q9HC98 whole entry): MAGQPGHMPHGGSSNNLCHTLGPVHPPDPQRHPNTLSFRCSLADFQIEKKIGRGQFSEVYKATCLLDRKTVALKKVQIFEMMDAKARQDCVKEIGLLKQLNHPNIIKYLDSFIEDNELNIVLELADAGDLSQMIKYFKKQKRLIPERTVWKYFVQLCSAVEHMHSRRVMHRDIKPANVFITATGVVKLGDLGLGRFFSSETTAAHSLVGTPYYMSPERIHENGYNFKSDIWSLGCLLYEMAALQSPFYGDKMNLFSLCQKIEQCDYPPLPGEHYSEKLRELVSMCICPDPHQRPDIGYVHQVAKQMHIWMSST

[19] = tested on: Epidermal growth factor receptor (Homo sapiens), P00533 [L858R]; conditions: BaF3, time 72.0 hrs
Sequence of Epidermal growth factor receptor (Homo sapiens), P00533 [L858R] (P00533 whole entry L858R): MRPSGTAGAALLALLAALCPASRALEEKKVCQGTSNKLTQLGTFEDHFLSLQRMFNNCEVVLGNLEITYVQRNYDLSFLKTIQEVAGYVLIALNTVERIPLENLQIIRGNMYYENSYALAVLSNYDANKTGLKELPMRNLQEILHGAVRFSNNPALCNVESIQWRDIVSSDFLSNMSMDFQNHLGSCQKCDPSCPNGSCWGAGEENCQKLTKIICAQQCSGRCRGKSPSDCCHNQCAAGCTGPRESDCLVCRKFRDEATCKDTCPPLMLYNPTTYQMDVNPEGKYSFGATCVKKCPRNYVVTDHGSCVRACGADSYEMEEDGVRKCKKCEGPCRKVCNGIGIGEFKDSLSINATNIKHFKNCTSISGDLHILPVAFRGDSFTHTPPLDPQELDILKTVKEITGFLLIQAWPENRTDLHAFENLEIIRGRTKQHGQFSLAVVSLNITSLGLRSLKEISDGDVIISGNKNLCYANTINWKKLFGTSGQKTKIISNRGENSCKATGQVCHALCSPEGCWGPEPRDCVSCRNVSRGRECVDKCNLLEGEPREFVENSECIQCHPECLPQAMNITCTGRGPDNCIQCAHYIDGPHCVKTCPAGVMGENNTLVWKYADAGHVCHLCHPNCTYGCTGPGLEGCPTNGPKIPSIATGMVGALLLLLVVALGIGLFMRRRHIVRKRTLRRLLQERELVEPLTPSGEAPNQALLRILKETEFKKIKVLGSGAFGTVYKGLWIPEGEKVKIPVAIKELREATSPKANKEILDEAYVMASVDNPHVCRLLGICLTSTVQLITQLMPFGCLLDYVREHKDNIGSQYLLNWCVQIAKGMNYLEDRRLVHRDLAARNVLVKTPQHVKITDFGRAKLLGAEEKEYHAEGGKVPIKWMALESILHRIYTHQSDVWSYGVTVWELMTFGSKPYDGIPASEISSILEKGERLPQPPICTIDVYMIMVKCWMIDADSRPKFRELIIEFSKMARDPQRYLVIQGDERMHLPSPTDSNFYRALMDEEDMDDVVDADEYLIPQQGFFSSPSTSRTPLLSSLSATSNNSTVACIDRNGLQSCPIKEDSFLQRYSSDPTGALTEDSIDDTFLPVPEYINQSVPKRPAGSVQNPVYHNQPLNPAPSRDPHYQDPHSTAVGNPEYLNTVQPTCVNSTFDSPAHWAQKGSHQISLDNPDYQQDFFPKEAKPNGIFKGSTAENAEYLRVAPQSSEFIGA

[20] = biological target: Serine/threonine-protein kinase D1 (Homo sapiens, UniProt Q15139); test: Inhibition of human PRKD1 using KKLNRTLSVA as substrate in presence of [gamma33P]-ATP by HotSpot assay
[21] = biological target: Ribosomal protein S6 kinase beta-1 (Homo sapiens) (UniProt P23443); test: Inhibition of human P70S6K at 1 uM using KKRNRTLTK as substrate in presence of [gamma33P]-ATP by HotSpot assay relative to control
NCI-H838 = conditions: time 72 hrs
[22] = tested on: EML4-ALK (Homo sapiens), Q9UM73+Q9HC35 [L1198F]; conditions: BaF3, time 3-5 weeks
[23] = biological target: Interleukin-1 receptor-associated kinase 4 (Homo sapiens) (UniProt Q9NWZ3); test: Inhibition of human IRAK4 at 1 uM using modified-CGRTGRRNSI-NH2 as substrate in presence of [gamma33P]-ATP by HotSpot assay relative to control
[24] = tested on: Epidermal growth factor receptor (Homo sapiens), P00533 [UNDEFINED MUTATION]; conditions: BaF3, time 72.0 hrs
[25] = biological target: Mitogen-activated protein kinase 13 (Homo sapiens) (UniProt O15264); test: Inhibition of human MAPK13 at 1 uM using MBP as substrate in presence of [gamma33P]-ATP by HotSpot assay relative to control
Sequence of Mitogen-activated protein kinase 13 (Homo sapiens) (O15264 whole entry): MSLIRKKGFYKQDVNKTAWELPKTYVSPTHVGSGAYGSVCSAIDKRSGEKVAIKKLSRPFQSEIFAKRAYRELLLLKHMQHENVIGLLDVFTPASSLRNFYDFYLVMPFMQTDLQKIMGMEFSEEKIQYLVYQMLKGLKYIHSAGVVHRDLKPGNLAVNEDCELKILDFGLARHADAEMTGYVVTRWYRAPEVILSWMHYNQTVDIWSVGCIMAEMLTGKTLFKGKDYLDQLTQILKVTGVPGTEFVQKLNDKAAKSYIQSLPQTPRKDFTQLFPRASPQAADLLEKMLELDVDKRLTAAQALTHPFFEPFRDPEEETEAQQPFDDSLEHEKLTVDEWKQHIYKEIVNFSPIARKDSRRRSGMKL

[26] = tested on: EML4-ALK (Homo sapiens), Q9UM73+Q9HC35 [F1174V]; conditions: BaF3, dose 500.0 nmol/L, time 3-5 weeks
[27] = tested on: EML4-ALK (Homo sapiens), Q9UM73+Q9HC35 [S1206F]; conditions: BaF3, dose 500.0 nmol/L, time 3-5 weeks

Question: Which results are given for `COc1cc(N2CCC(N3CCN(C)CC3)CC2)ccc1Nc1ncc(Cl)c(Nc2ccccc2P(C)(C)=O)n1` [BRIGATINIB]?
Answer: IC50 [1]: 127 nM; inhibition [2]: < 90%; inhibition [3]: < 90%; inhibition [4]: < 90%; IC50 [5]: 5.6 nM; inhibition [6]: < 90%; inhibition [7]: < 90%; IC50 [8]: > 1000 nM; inhibition [9]: < 90%; inhibition [10]: < 90%; IC90 [11]: 276 nM; IC50 [12]: 338 nM; inhibition [13]: < 90%; inhibition [14]: < 90%; Activity (BaF3): 67%; inhibition [15]: < 90%; IC50 at 72 h (in vitro): 3210 nM; inhibition [16]: < 90%; IC50 [17]: 26 nM; inhibition [18]: < 90%; IC90 [19]: 1200 nM; IC50 [20]: 197 nM; inhibition [21]: < 90%; GI50 (NCI-H838): 503 nM; IC90 [22]: 242 nM; inhibition [23]: < 90%; IC90 [24]: 2460 nM; inhibition [25]: < 90%; inhibition [26]: Active; inhibition [27]: Active

Reference: ChEMBL document CHEMBL5696443 (Clin Cancer Res, 2016)
